Activity calls are given as the source filed them.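 How the source made its calls: active means inhibition of the enzyme prolyl endopeptidase above 20%; inactive means inhibition at or below 20%.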
target: Prolyl endopeptidase (Mus musculus) (UniProt Q9QUR6); experiment: mouse PEP inhibitors, selectivity assay for PREPL inhibitor project, biochemical, fluorescence, assay provider data (AID 624482); settings: recombinant PEP, Z-Gly-Pro-AMC fluorescence; at 20 µM; active compounds read high
Sequence (Q9QUR6 whole entry, looked up): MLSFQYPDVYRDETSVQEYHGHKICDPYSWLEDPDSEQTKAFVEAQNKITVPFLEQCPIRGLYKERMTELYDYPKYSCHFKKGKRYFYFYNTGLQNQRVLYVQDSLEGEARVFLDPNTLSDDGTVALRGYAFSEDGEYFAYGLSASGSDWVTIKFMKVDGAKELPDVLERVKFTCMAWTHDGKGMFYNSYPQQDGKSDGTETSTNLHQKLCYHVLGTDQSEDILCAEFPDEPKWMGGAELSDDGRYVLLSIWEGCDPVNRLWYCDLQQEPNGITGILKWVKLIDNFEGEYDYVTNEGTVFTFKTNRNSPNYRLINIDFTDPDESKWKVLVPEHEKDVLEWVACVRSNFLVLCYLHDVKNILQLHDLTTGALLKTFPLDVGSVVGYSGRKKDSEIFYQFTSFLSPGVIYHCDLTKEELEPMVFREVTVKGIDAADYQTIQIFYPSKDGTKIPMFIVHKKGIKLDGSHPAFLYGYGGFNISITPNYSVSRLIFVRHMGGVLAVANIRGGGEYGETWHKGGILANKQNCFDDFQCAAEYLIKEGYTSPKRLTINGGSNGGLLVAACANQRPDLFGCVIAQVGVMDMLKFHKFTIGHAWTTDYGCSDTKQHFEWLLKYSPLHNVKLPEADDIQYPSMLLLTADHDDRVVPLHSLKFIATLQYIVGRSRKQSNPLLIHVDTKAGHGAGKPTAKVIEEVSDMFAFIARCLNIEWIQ

| Compound | inhibition |
| --- | --- |
| O=C(Nc1ccc2c(c1)OCCO2)c1cccc2nc3ccccc3nc12 | -26% (inactive) |
| N#Cc1c2c(c(-c3ccccc3)[nH]c1=O)CCCC2 | -13% (inactive) |
| CCOc1ccc(CCNC(=O)c2ccc3c(=O)[nH]c4c(C(=O)NC(C)C)sc(=S)n4c3c2)cc1 | -29% (inactive) |
| CC(C)Cc1[nH]c(=O)c(C#N)c2c1CCC2 | -17% (inactive) |
| COc1cc2nc(Nc3ccc(C)c(C)c3)nc(N)c2cc1OC | 46% |

— PubChem BioAssay AID624482 (The Scripps Research Institute Molecular Screening Center, 2012)
